From patent publication US20230302010A1, “2-((4S)-6-(4-CHLOROPHENYL)-1-METHYL-4H-BENZO[C]ISOXAZOLO[4,5-E]AZEPIN-4-YL)ACETAMIDE FOR TREATING THROMBOCYTHEMIA” (Constellation Pharmaceuticals, Inc., priority 2020, published 2023)
Read-outs that look alike come from different tables or passages of the source.

Legend:
[1] = system: patients with high-risk ET; details: cited from earlier work
[2] = system: IL6 release from THP-1 acute leukemia cells; experiment: IL6 release from lipopolysaccharide-treated THP-1 cells; type: cell-based; details: Homo sapiens; THP-1 cells exposed to lipopolysaccharide, then compound for 16 hours; read-out: IL6 release inhibition IC50
Procedure: Compound 1 was assessed for its ability to suppress the expression of NF-κB target genes in two experiments. In one experiment, THP-1 acute leukemia cell lines were exposed to lipopolysaccharide treatment and then Compound 1 for 16 hours. […] In the other experiment, the ability of Compound 1 to suppress both IL6 and IL10 expression in TMD8 ABC-DLBCL cells was investigated (data on file). TMD8 cells were incubated with DMSO or 1.6 μM Compound 1 for 6 or 24 hours. RNA was then extracted from the cells and quantified using qRT-PCR.

[3] = system: CD34+ cells isolated from healthy donor bone marrow; experiment: Megakaryocyte differentiation of CD34+ cells (FACS, CD41a expression); type: cell-based; details: 14 days, FACS (FIG. 2)
Procedure: The effects of Compound 1 on megakaryocyte differentiation and proliferation were evaluated using CD34+ cells isolated from healthy donor bone marrow (data on file). The CD34+ cells were grown in megakaryocyte differentiation serum-free stem cell differentiation base medium with a megakaryocyte-driving cytokine cocktail for 14 days with DMSO or Compound 1 at concentrations ranging from 3 nM to 500 nM. The cells were then stained for CD34 (progenitor marker), CD45 (leukocyte marker) and CD41a (mature megakaryocyte marker) and assessed by FACS for viability and marker expression. CD41a expression and cell size were used as markers of megakaryocyte differentiation. […] The shift from high to low CD41a expression began at approximately 50 nM, with pronounced effects observed at 200 to 500 nM, as shown in FIG. 2.

SMILES | survival from the beginning of treatment ([1]; 14-year retrospective study, 166 high-risk ET patients) | patients who died ([1]; 166 high-risk ET patients treated for a median of 4.5 years, median follow-up of seven years from diagnosis) | 10-year overall survival ([1]; patients who achieved a complete response) | 10-year overall survival ([1]; patients with HU resistance) | IC50 [2] | concentration at which shift from high to low CD41a expression began [3]
NC(=O)NO [HU, hydroxyurea] | 65% | 23% | 79% | 26% |  | 
Cc1noc2c1-c1ccccc1C(c1ccc(Cl)cc1)=N[C@H]2CC(N)=O [Compound 1, 2-((4S)-6-(4-chlorophenyl)-1-methyl-4H-benzo[c]isoxazolo[4,5-e]azepin-4-yl)acetamide] |  |  |  |  | 69 nM | approximately 50 nM
